Here are results for 19 compounds from patent US10239832B2, “N-(1-hydroxy-3-(pyrrolidinyl)propan-2-yl)pyrrolidine-3-carboxamide derivatives as glucosylceramide synthase inhibitors” (BIOMARIN PHARMACEUTICAL INC., priority 2013, dated 2019).

The test deals with T1, GCS (Canis lupus familiaris, UniProt A0A8I3MXG6).
T1 construct: endogenous in cells; host or cells: MDCK (Madin-Darby canine kidney) cells, whole-cell lysate
T1 sequence (A0A8I3MXG6 1-394): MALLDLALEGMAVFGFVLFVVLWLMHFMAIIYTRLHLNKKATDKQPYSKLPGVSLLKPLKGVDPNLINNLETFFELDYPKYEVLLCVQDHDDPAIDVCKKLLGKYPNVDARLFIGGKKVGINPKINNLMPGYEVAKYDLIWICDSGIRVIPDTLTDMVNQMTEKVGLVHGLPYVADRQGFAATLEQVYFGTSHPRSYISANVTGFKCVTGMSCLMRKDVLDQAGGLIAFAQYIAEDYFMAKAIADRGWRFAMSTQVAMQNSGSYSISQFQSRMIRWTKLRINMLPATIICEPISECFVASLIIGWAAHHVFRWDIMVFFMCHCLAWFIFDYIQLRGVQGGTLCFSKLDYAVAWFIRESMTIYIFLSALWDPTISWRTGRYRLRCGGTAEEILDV
The test is described as follows: GCS enzymatic assay (MDCK cell lysate, NBD-ceramide to glucosylceramide, LC/MS). It is filed as biochemical, canine. As to conditions: Table 2, the table does not say which of the assays; for pIC50: class symbols A, B, C, read-out: Data Range (IC50 values); for Data Range (% inhibition): class symbols D, E, F, NA (not active). How it is done: This assay was modified based on the study by Larsen et al. (J. Lipid Res. 2011, 53, 282). Madin-Darby canine kidney (MDCK) cell lysate was prepared using M-PER Mammalian Protein Extraction Reagent (Thermal Scientific) in the presence of a protease inhibitor cocktail (Roche). Protein concentration was determined using BCA assay kit (Pierce). […] 0.1% DMSO was used as mock treatment or control. The reaction was terminated by adding 100 μL acetonitrile solution and subjected to LC/MS analysis.
The quantitative analysis of NBD-Ceramide and glucosylceramide was performed on a Shimadzu ultra-fast liquid chromatography (Shimadzu, Japan) coupled with API 4000 triple quadrupole mass spectrometer (Applied Biosystems, Concord, Ontario, Canada). Sample separation was conducted on a Waters Xbridge™ BEH130 C18, 100 mm×4.6 mm i.d, 3.5 μm (Milford, Mass., USA). The mobile phase consisted of water and acetonitrile supplemented with 0.1% formic acid (v/v). The flow rate was 1.0 mL/min. The initial mobile phase was 20% acetonitrile and was ramped in a linear fashion to 50% acetonitrile in 0.4 min. From 0.4 to 1.5 min, the gradient was ramped to 98% acetonitrile, and then was held at […] until 8.0 min. Acetonitrile was reset to 20% in 1.5 min, and maintained until 10.0 min. The total run time was 10.0 min. The MS/MS detection was performed in ESI positive mode. The mass transition of NBD-Ceramide was m/z 576.36→558.40 under the collision energy of 15 V, and the mass transition of glucosylceramide was m/z 738.35→558.40 under 21V collision energy. The cell lysate was diluted with equal volume of acetonitrile. Aliquots of 50 μL diluted samples were added to 1.5 mL tubes, and 100 μL of acetonitrile containing internal standard (100 ng/mL tolbutamide) were added for protein precipitation. The mixture were vortexed and then centrifuged at 13000 rpm for 10 min. 70 μL of supernatant were mixed with 140 μL of H2O and the final solution were injected for LC/MS/MS analysis and IC50's and/or percent inhibitions calculated.

SMILES strings stand for the structures. pIC50: −log10 of the molar value.

The pIC50 is the negative decadic logarithm of the IC50, by convention in mol/L.

`CC(C)(O)COc1ccc([C@@H](O)[C@@H](CN2CCCC2)NC(=O)[C@@H]2CCN(c3ccc(Cl)cc3)C2)cc1Cl` [Compound 87, (R)-N-((1R,2R)-1-(3-chloro-4-(2-hydroxy-2-methylpropoxy)phenyl)-1-hydroxy-3-(pyrrolidin-1-yl)propan-2-yl)-1-(4-chlorophenyl)pyrrolidine-3-carboxamide]: the pIC50 was 7.52 to 9.00.
The same measure, in the same setting: the value for `O=C(N[C@H](CN1CCCC1)[C@H](O)c1ccc(OC2CC2)c(Cl)c1)[C@@H]1CCN(c2ccc(F)cc2)C1` [Compound 96, (R)-N-((1R,2R)-1-(3-chloro-4-cyclopropoxyphenyl)-1-hydroxy-3-(pyrrolidin-1-yl)propan-2-yl)-1-(4-fluorophenyl)pyrrolidine-3-carboxamide] was 7.52 to 9.00.
Turning to `Cn1ncc2cc(N3CC[C@@H](C(=O)N[C@H](CN4CCCC4)[C@H](O)c4ccc(OC5CC5)c(Cl)c4)C3)ccc21` [Compound 127, (R)-N-((1R,2R)-1-(3-chloro-4-cyclopropoxyphenyl)-1-hydroxy-3-(pyrrolidin-1-yl)propan-2-yl)-1-(1-methyl-1H-indazol-5-yl)pyrrolidine-3-carboxamide], the “Data Range (% inhibition)” value is “E (50-74% (or less than 75%))”.
On the same count and under the same terms, the value for `O=C(N[C@H](CN1CCCC1)[C@H](O)c1ccc2c(c1)OCCO2)[C@H]1CCN(c2nc3c(s2)CCCC3)C1` [Compound 36G, (S)-N-((1R,2R)-1-(2,3-dihydrobenzo[b][1,4]dioxin-6-yl)-1-hydroxy-3-(pyrrolidin-1-yl)propan-2-yl)-1-(4,5,6,7-tetrahydrobenzo[d]thiazol-2-yl)pyrrolidine-3-carboxamide] was “NA (not active—a negative value was generated for % inhibition)”.
On to `O=C(N[C@H](CN1CCCC1)[C@H](O)c1ccc(OCC(F)(F)F)nc1)[C@@H]1CCN(c2ccc(F)cc2)C1` [Compound 34, (R)-1-(4-fluorophenyl)-N-((1R,2R)-1-hydroxy-3-(pyrrolidin-1-yl)-1-(6-(2,2,2-trifluoroethoxy)pyridin-3-yl)propan-2-yl)pyrrolidine-3-carboxamide], for which the “Data Range (% inhibition)” value is listed as “E (50-74% (or less than 75%))”.
On to `Cn1ncc2ccc(N3CC[C@@H](C(=O)N[C@H](CN4CCCC4)[C@H](O)c4ccc5c(c4)OCCO5)C3)cc21` [Compound 61, (R)-N-((1R,2R)-1-(2,3-dihydrobenzo[b][1,4]dioxin-6-yl)-1-hydroxy-3-(pyrrolidin-1-yl)propan-2-yl)-1-(1-methyl-1H-indazol-6-yl)pyrrolidine-3-carboxamide], for which the “Data Range (% inhibition)” value is “NA (not active—a negative value was generated for % inhibition)”.
For `O=C(N[C@H](CN1CCCC1)[C@H](O)c1ccc2c(c1)OCCO2)[C@H]1CCN(c2ccc3cc(Cl)ccc3n2)C1` [Compound 99D, (S)-1-(6-chloroquinolin-2-yl)-N-((1R,2R)-1-(2,3-dihydrobenzo[b][1,4]dioxin-6-yl)-1-hydroxy-3-(pyrrolidin-1-yl)propan-2-yl)pyrrolidine-3-carboxamide], the “Data Range (% inhibition)” value is recorded as “F (1-49% (or less than 50%))”.
The same measure, in the same setting: the value for `Cc1cc(N2CC[C@H](C(=O)N[C@H](CN3CCCC3)[C@H](O)c3ccc4c(c3)OCCO4)C2)cc(C)n1` [Compound 82E, (S)-N-((1R,2R)-1-(2,3-dihydrobenzo[b][1,4]dioxin-6-yl)-1-hydroxy-3-(pyrrolidin-1-yl)propan-2-yl)-1-(2,6-dimethylpyridin-4-yl)pyrrolidine-3-carboxamide] was “NA (not active—a negative value was generated for % inhibition)”.
Take `O=C(N[C@H](CN1CCCC1)[C@H](O)c1ccc(OC2CC2)cc1)[C@@H]1CCN(c2ccc(F)cc2)C1` [Compound 148, (R)-N-((1R,2R)-1-(4-cyclopropoxyphenyl)-1-hydroxy-3-(pyrrolidin-1-yl)propan-2-yl)-1-(4-fluorophenyl)pyrrolidine-3-carboxamide]: the pIC50 was 7.52 to 9.00.
As for `O=C(N[C@H](CN1CCCC1)[C@H](O)c1ccc2c(c1)OCCO2)[C@@H]1CCN(c2ccc3c(c2)CCCC3)C1` [Compound 80, (R)-N-((1R,2R)-1-(2,3-dihydrobenzo[b][1,4]dioxin-6-yl)-1-hydroxy-3-(pyrrolidin-1-yl)propan-2-yl)-1-(5,6,7,8-tetrahydronaphthalen-2-yl)pyrrolidine-3-carboxamide], the “Data Range (% inhibition)” value is reported as “E (50-74% (or less than 75%))”.
Consider `O=C(N[C@H](CN1CCCC1)[C@H](O)c1ccc(OC2CC2)c(Cl)c1)C1CCN(c2ccc(Cl)cc2)C1` (stereo partly drawn) [Compound 3A, N-((1R,2R)-1-(3-chloro-4-cyclopropoxyphenyl)-1-hydroxy-3-(pyrrolidin-1-yl)propan-2-yl)-1-(4-chlorophenyl)pyrrolidine-3-carboxamide], for which the pIC50 is 7.00 to 7.52.
Consider `O=C(N[C@H](CN1CCC1)[C@H](O)c1ccc(OC2CC2)cc1)[C@@H]1CCN(c2ccc3cc(F)ccc3c2)C1` [Compound 159, (R)-N-((1R,2R)-3-(azetidin-1-yl)-1-(4-cyclopropoxyphenyl)-1-hydroxypropan-2-yl)-1-(6-fluoronaphthalen-2-yl)pyrrolidine-3-carboxamide], for which the pIC50 is 7.00 to 7.52.
As to `O=C(N[C@H](CN1CCCC1)[C@H](O)c1ccc(OC2CC2)c(Cl)c1)[C@@H]1CCN(c2ccc(Cl)c(Oc3ccccn3)c2)C1` [Compound 103, (R)-1-(4-chloro-3-(pyridin-2-yloxy)phenyl)-N-((1R,2R)-1-(3-chloro-4-cyclopropoxyphenyl)-1-hydroxy-3-(pyrrolidin-1-yl)propan-2-yl)pyrrolidine-3-carboxamide], the pIC50 was 7.52 to 9.00.
`O=C(N[C@H](CN1CCCC1)[C@H](O)c1cc(F)c2c(c1)OCCO2)[C@@H]1CCN(c2ccc3cc(Cl)ccc3n2)C1` [Compound 104, (R)-1-(6-chloroquinolin-2-yl)-N-((1R,2R)-1-(8-fluoro-2,3-dihydrobenzo[b][1,4]dioxin-6-yl)-1-hydroxy-3-(pyrrolidin-1-yl)propan-2-yl)pyrrolidine-3-carboxamide]: the pIC50 was 7.52 to 9.00.
On to `O=C(N[C@H](CN1CCC1)[C@H](O)c1ccc(OC2CC2)c(Cl)c1)[C@@H]1CCN(c2ccc3cc(F)ccc3c2)C1` [Compound 95, (R)-N-((1R,2R)-3-(azetidin-1-yl)-1-(3-chloro-4-cyclopropoxyphenyl)-1-hydroxypropan-2-yl)-1-(6-fluoronaphthalen-2-yl)pyrrolidine-3-carboxamide], for which the “Data Range (% inhibition)” value is “D (75-100%)”.
For `O=C(N[C@H](CN1CCCC1)[C@H](O)c1ccc(OC2CC2)cc1)[C@@H]1CCN(c2ccc(Cl)cc2)C1` [Compound 155, (R)-1-(4-chlorophenyl)-N-((1R,2R)-1-(4-cyclopropoxyphenyl)-1-hydroxy-3-(pyrrolidin-1-yl)propan-2-yl)pyrrolidine-3-carboxamide], the pIC50 was 7.52 to 9.00.
Consider `O=C(N[C@H](CN1CCC1)[C@H](O)c1ccc2c(c1)OCCO2)C1CCN(c2ccc3cc(F)ccc3c2)C1` (stereo partly drawn) [Compound 79A, N-((1R,2R)-3-(azetidin-1-yl)-1-(2,3-dihydrobenzo[b][1,4]dioxin-6-yl)-1-hydroxypropan-2-yl)-1-(6-fluoronaphthalen-2-yl)pyrrolidine-3-carboxamide], for which the pIC50 was 7.52 to 9.00.
On the same count and under the same terms, the value for `Cn1ncc2ccc(N3CC[C@@H](C(=O)N[C@H](CN4CCCC4)[C@H](O)c4ccc(OC5CC5)c(Cl)c4)C3)cc21` [Compound 133, (R)-N-((1R,2R)-1-(3-chloro-4-cyclopropoxyphenyl)-1-hydroxy-3-(pyrrolidin-1-yl)propan-2-yl)-1-(1-methyl-1H-indazol-6-yl)pyrrolidine-3-carboxamide] was 7.52 to 9.00.
Regarding `O=C(N[C@H](CN1CCCC1)[C@H](O)c1ccc2c(c1)OCCO2)[C@@H]1CCN(c2ccc(OC3CC3)c(Cl)c2)C1` [Compound 20, (R)-1-(3-chloro-4-cyclopropoxyphenyl)-N-((1R,2R)-1-(2,3-dihydrobenzo[b][1,4]dioxin-6-yl)-1-hydroxy-3-(pyrrolidin-1-yl)propan-2-yl)pyrrolidine-3-carboxamide], the “Data Range (% inhibition)” value is recorded as “F (1-49% (or less than 50%))”.
